Assay results reported in ChEMBL document CHEMBL5247585, “Design, synthesis, and evaluation of 4(1H)-quinolinone and urea derivatives as KRASG12C inhibitors with potent antitumor activity against KRAS-mutant non-small cell lung cancer” (Eur J Med Chem, 2022).
pIC50: −log10 of the molar value. Active and inactive are the calls of the source. The rule behind the calls is not given here.

What was measured:
[1] = test system: NCI-H2228; assay: Antiproliferative activity against human NCI-H2228 cells harboring wild type KRAS assessed as reduction in cell viability incubated for 72 hrs by MTT assay; assay type: functional, cell-based; settings: NCI-H2228, 72 h
[2] = test system: A549; assay: Antiproliferative activity against human A549 cells harboring KRAS G12S mutant assessed as reduction in cell viability incubated for 72 hrs by MTT assay; assay type: functional, cell-based; settings: A549, 72 h
[3] = test system: NCI-H23; assay: Antiproliferative activity against human NCI-H23 cells harboring KRAS G12C mutant assessed as reduction in cell viability incubated for 72 hrs by MTT assay; assay type: functional, cell-based; settings: NCI-H23, 72 h
[4] = test system: NCI-H358; assay: Antiproliferative activity against human NCI-H358 cells harboring KRAS G12C mutant assessed as reduction in cell viability incubated for 72 hrs by MTT assay; assay type: functional, cell-based; settings: NCI-H358, 72 h
[5] = Selectivity index, ratio of IC50 for human A549 cells harboring KRAS G12S mutant to IC50 for human NCI-H23 cells harboring KRAS G12C mutant; assay type: functional
[6] = test system: NCI-H358; assay: Antitumor activity against human NCI-H358 cells harboring KRAS G12C mutant xenografted in BALB/c mouse assessed as reduction in tumor growth at 10 to 15 mg/kg, ip administered for 21 days by Ki67 staining based analysis; assay type: functional, organism-based; settings: dose 10-15 mg/kg, time 21.0 day
[7] = test system: SK-LU-1; assay: Antiproliferative activity against human SK-LU-1 cells harboring KRAS G12D mutant assessed as reduction in cell viability incubated for 72 hrs by MTT assay; assay type: functional, cell-based; settings: SK-LU-1, 72 h
[8] = test system: NCI-H358; assay: Antitumor activity against human NCI-H358 cells harboring KRAS G12C mutant xenografted in BALB/c mouse assessed as tumor growth inhibition at 10 mg/kg, ip administered for 21 days; assay type: functional, organism-based; settings: time 21.0 day
[9] = Cytotoxicity against human MRC5 cells assessed as reduction in cell viability incubated for 72 hrs by MTT assay; assay type: toxicity, cell-based
[10] = test system: GTPase KRas (Homo sapiens), P01116 [G12C]; assay: (§1) Inhibition of 6His tagged Mant-GDP loaded human KRAS G12C mutant (1 to 169 residues) expressed in Escherichia coli BL21 (DE3) cells assessed as inhibition of SOS1-mediated nucleotide exchange at 10 uM preincubated with compound for 1 hrs followed by addition of GTP and SOS1 protein and measured every 90 sec for 2 hrs by fluorescence based assay; settings: time 3.0 hrs
[11] = Toxicity in BALB/c mouse xenografted with human NCI-H358 cells harboring KRAS G12C mutant assessed as effect on body weight at 10 to 15 mg/kg, ip administered for 21 days; assay type: organism-based; settings: in vivo, 504 h, dose 10-15 mg/kg, time 21 day
[12] = test system: GTPase KRas (Homo sapiens), P01116 [G12C]; assay: In vivo inhibition of KRAS signaling in BALB/C mouse xenografted with human NCI-H358 cells harboring KRAS G12C mutant assessed as decrease in ERK phosphorylation in tumor at 10 to 15 mg/kg, ip administered for 21 days by IHC staining based analysis; assay type: functional, organism-based; settings: dose 10-15 mg/kg, time 21.0 day
[13] = Selectivity index, ratio of IC50 for human NCI-H2228 cells harboring wild type KRAS to IC50 for human NCI-H358 cells harboring KRAS G12C mutant; assay type: functional
[14] = Selectivity index, ratio of IC50 for human MRC5 cells to IC50 for human NCI-H358 cells harboring KRAS G12C mutant
[15] = test system: NCI-H358; assay: Inhibition of KRAS signaling in human NCI-H358 cells harboring KRAS G12C mutant assessed as decrease in ERK phosphorylation level at 0.5 to 8 uM incubated for 6 hrs by Western blot analysis relative to control; assay type: cell-based; settings: dose 0.5-8 µM
[16] = test system: NCI-H441; assay: Antiproliferative activity against human NCI-H441 cells harboring KRAS G12V mutant assessed as reduction in cell viability incubated for 72 hrs by MTT assay; assay type: functional, cell-based; settings: NCI-H441, 72 h
[17] = Selectivity index, ratio of IC50 for human A549 cells harboring KRAS G12S mutant to IC50 for human NCI-H358 cells harboring KRAS G12C mutant; assay type: functional
[18] = biological target: GTPase KRas (Homo sapiens) (UniProt P01116); assay: Covalent binding affinity to 6his tagged GDP bound human wildtype KRAS expressed in Escherichia coli BL21 (DE3) cells at 200 uM incubated for 24 hrs by LC-MS/MS analysis
[19] = biological target: GTPase KRas (Homo sapiens) (UniProt P01116); assay: Inhibition of KRAS signaling in human NCI-H2228 cells harboring wildtype KRAS at 0.5 to 8 uM incubated for 6 hrs by Western blot analysis; assay type: cell-based; settings: dose 0.5-8 µM
[20] = test system: GTPase KRas (Homo sapiens), P01116 [G12C]; assay: Covalent binding affinity to 6His tagged GDP bound human KRAS G12C mutant (1 to 169 residues) expressed in Escherichia coli BL21 (DE3) cells at 200 uM incubated for 24 hrs by LC-MS /MS analysis
[21] = test system: NCI-H358; assay: Induction of apoptosis in human NCI-H358 cells assessed as fold change in cleaved caspase-3 level at 0.5 to 8 uM incubated for 6 hrs by Western blot analysis; assay type: functional; settings: dose 0.5-8 µM
[22] = test system: NCI-H358; assay: Inhibition of KRAS signaling in human NCI-H358 cells harboring KRAS G12C mutant assessed as decrease in AKT phosphorylation level at 0.5 to 8 uM incubated for 6 hrs by Western blot analysis relative to control; assay type: cell-based; settings: dose 0.5-8 µM
[23] = Selectivity index, ratio of IC50 for human NCI-H2228 cells harboring wild type KRAS to IC50 for human NCI-H23 cells harboring KRAS G12C mutant; assay type: functional
[24] = test system: NCI-H358; assay: Antitumor activity against human NCI-H358 cells harboring KRAS G12C mutant xenografted in BALB/c mouse assessed as increase in cleaved caspase-3 level at 10 to 15 mg/kg, ip administered for 21 days by IHC staining analysis; assay type: functional, organism-based; settings: dose 10-15 mg/kg, time 21.0 day
[25] = test system: NCI-H358; assay: Antitumor activity against human NCI-H358 cells harboring KRAS G12C mutant xenografted in BALB/c mouse assessed as tumor growth inhibition at 15 mg/kg, ip administered for 21 days; assay type: functional; settings: NCI-H358, 504 h, time 21 day, read-out: TGI
[26] = test system: GTPase KRas (Homo sapiens), P01116 [G12C]; assay: as §1, with “[…]” for “SOS1-mediated”, “EDTA” for “SOS1 protein”; settings: time 3.0 hrs

**Q.** With `C=CC(=O)NC1CCN(C(=O)c2cc(=O)c3cc(Cl)c(C(F)(F)F)cc3[nH]2)CC1` as the molecule, how does the pIC50 [1] read?
**A.** 4.37

**Q.** And the pIC50 [2]?
**A.** 4.34

**Q.** What about the pIC50 [3] of the same molecule?
**A.** 5.09

**Q.** And the pIC50 [4]?
**A.** 4.73

**Q.** With `C=CC(=O)N1CCC(NC(=O)Nc2ccc(Cl)c(C(F)(F)F)c2)CC1` as the molecule, how does the pIC50 [1] read?
**A.** 4.34

**Q.** What about the pIC50 [2] of the same molecule?
**A.** < 4.00

**Q.** What about the pIC50 [3] of the same molecule?
**A.** < 4.00

**Q.** What about the pIC50 [4] of the same molecule?
**A.** < 4.00

**Q.** With `C=CC(=O)N1CC[C@@H](NC(=O)Nc2ccc(Cl)c(C(F)(F)F)c2)C1` as the molecule, how does the pIC50 [1] read?
**A.** 4.24

**Q.** And the pIC50 [2]?
**A.** < 4.00

**Q.** What about the pIC50 [3] of the same molecule?
**A.** 4.53

**Q.** And the pIC50 [4]?
**A.** 4.42

**Q.** Which results are given for `O=C(CCl)N1CCN(C(=O)Nc2ccc(Cl)c(-c3ccccc3F)c2)CC1`?
**A.** Ratio IC50 [5]: 7; Activity [6]: Active; pIC50 [7]: 5.34; TGI [8]: Active; IC50 at 72 h [9]: 6.1 µM; inhibition [10]: Active; Activity [11]: Non-Toxic; pIC50 [1]: 4.94; inhibition [12]: Active; Ratio IC50 [13]: 7; pIC50 [2]: 5.03; Ratio IC50 [14]: 12; inhibition [15]: 40%; pIC50 [16]: 5.36; Ratio IC50 [17]: 7; Activity [18]: inactive; inhibition [19]: inactive; Activity [20]: Active; fold change (FC) [21]: 2; inhibition [22]: 30%; Ratio IC50 [23]: 7; pIC50 [3]: 5.89; pIC50 [4]: 6.30; Activity [24]: Active; inhibition in vivo at 15 mg/kg [25]: 50%; inhibition [26]: inactive

**Q.** With `C=CS(=O)(=O)NC1CCN(C(=O)CNc2cc(I)c(Cl)cc2OC)CC1` as the molecule, how does the pIC50 [7] read?
**A.** 4.64

**Q.** And the IC50 at 72 h [9]?
**A.** 10.3 µM

**Q.** And the pIC50 [1]?
**A.** 5.14

**Q.** And the pIC50 [2]?
**A.** 5.28

**Q.** What about the pIC50 [16] of the same molecule?
**A.** 4.67

**Q.** And the pIC50 [3]?
**A.** 5.52

**Q.** What about the pIC50 [4] of the same molecule?
**A.** 5.36

**Q.** Which results are given for `O=C(Nc1ccc(Cl)c(C(F)(F)F)c1)NC1CCN(C(=O)CCl)CC1`?
**A.** inhibition [10]: Active; pIC50 [1]: 4.97; pIC50 [2]: 5.10; Activity [18]: inactive; Activity [20]: Active; pIC50 [3]: 5.64; pIC50 [4]: 5.51; inhibition [26]: inactive

**Q.** What does the source list for `C=CC(=O)NC1CCN(C(=O)c2cc(=O)c3cc(Cl)ccc3[nH]2)CC1`?
**A.** pIC50 [1]: < 4.00; pIC50 [2]: < 4.00; pIC50 [3]: 4.46; pIC50 [4]: 4.53

**Q.** With `O=C(Nc1ccc(Cl)c(C(F)(F)F)c1)N[C@@H]1CCN(C(=O)CCl)C1` as the molecule, how does the pIC50 [1] read?
**A.** 5.40

**Q.** What about the pIC50 [2] of the same molecule?
**A.** 4.58

**Q.** What about the pIC50 [3] of the same molecule?
**A.** 5.34

**Q.** And the pIC50 [4]?
**A.** 5.35

**Q.** Which results are given for `C=CC(=O)N1CC[C@@H](NC(=O)Nc2ccc(Cl)cc2)C1`?
**A.** pIC50 [1]: < 4.00; pIC50 [2]: < 4.00; pIC50 [3]: < 4.00; pIC50 [4]: < 4.00

**Q.** With `C=CS(=O)(=O)N1CCC(NC(=O)Nc2ccc(Cl)cc2)CC1` as the molecule, how does the pIC50 [1] read?
**A.** 4.56

**Q.** And the pIC50 [2]?
**A.** < 4.00

**Q.** And the pIC50 [3]?
**A.** 4.72

**Q.** And the pIC50 [4]?
**A.** 4.50

**Q.** With `C=CC(=O)N1CC[C@H](NC(=O)Nc2ccc(Cl)c(C(F)(F)F)c2)C1` as the molecule, how does the pIC50 [1] read?
**A.** 4.42

**Q.** What about the pIC50 [2] of the same molecule?
**A.** < 4.00

**Q.** And the pIC50 [3]?
**A.** 4.54

**Q.** And the pIC50 [4]?
**A.** 4.64

**Q.** With `O=C(NC1CCN(C(=O)CCl)C1)c1cc(=O)c2cc(Cl)c(I)cc2[nH]1` (centres undefined) as the molecule, how does the pIC50 [1] read?
**A.** 5.09

**Q.** And the pIC50 [2]?
**A.** 4.99

**Q.** What about the pIC50 [3] of the same molecule?
**A.** 5.42

**Q.** What about the pIC50 [4] of the same molecule?
**A.** 5.27

**Q.** With `O=C(CCl)N1CCN(C(=O)Nc2ccc(Cl)c(C(F)(F)F)c2)CC1` as the molecule, how does the pIC50 [1] read?
**A.** 6.22

**Q.** What about the pIC50 [2] of the same molecule?
**A.** 5.82

**Q.** What about the pIC50 [3] of the same molecule?
**A.** 5.04

**Q.** What about the pIC50 [4] of the same molecule?
**A.** 5.34

**Q.** With `C=CC(=O)NC1CCN(C(=O)c2cc(=O)c3ccccc3[nH]2)CC1` as the molecule, how does the pIC50 [1] read?
**A.** < 4.00

**Q.** What about the pIC50 [2] of the same molecule?
**A.** < 4.00

**Q.** And the pIC50 [3]?
**A.** < 4.00

**Q.** And the pIC50 [4]?
**A.** 4.35

**Q.** What does the source list for `C=CC(=O)N1CC[C@@H](NC(=O)Nc2ccc(Cl)c(Cl)c2)C1`?
**A.** pIC50 [1]: 4.21; pIC50 [2]: < 4.00; pIC50 [3]: 4.38; pIC50 [4]: 4.34
